Measurements reported in US11447460B2, “Compounds and compositions for treating conditions associated with NLRP activity” (Novartis AG, priority 2016, dated 2022).

tested on: IL-1β production in PMA-differentiated THP-1 cells; assay: IL-1β production in PMA-differentiated THP-1 cells stimulated with gramicidin (hTHP-1 assay, 2% bovine serum; Bioassays 1 and 2); assay type: cell-based, human; details: Homo sapiens, THP-1; hTHP-1 assay containing 2% bovine serum; Table 12, by Example #; read-out: Average IC50 of compounds in hTHP-1 assay
Procedure: IL-1β Production in PMA-Differentiated THP-1 Cells Stimulated with Gramicidin.
Cell culture-THP-1 cells were purchased from the American Type Culture Collection and sub-cultured according to instructions from the supplier. Prior to experiments, cells were cultured in RPMI 1640 containing 10% heat inactivated FBS, penicillin (100 units/ml) and streptomycin (100 μg/ml), and maintained in log phase prior to experimental setup. Prior to the experiment THP-1 were treated with PMA (Phorbol 12-myristate 13-acetate) (10 μg/ml) for 24 hours. The day of the experiment the media was removed and attaching cells were treated with trypsin for 2 minutes, cells were then collected, washed with PBS (phosphate buffer saline), spin down, resuspended in 2% heat inactivated FBS with RPMI at a concentration of 1×10^6 cells/ml, and 100 ul was plated in a 96 well plate. Cells were incubated with compounds for 1 hours and then stimulated with Gramicidin (5 μM) (Enzo) for 2 hours. Cell free supernatant was collected and the production of IL-1β was evaluated by ELISA. Compounds were dissolved in dimethyl sulfoxide (DMSO) and added to the culture medium to achieve desired concentration (e.g. 100, 30, 10, 3, 1, 0.3 or 0.1 μM). A vehicle only control was run concurrently with each experiment. Final DMSO concentration was 1%.
THP-1 cells were purchased from the American Type Culture Collection and sub-cultured according to instructions from the supplier. Prior to experiments, cells were cultured in complete RPMI 1640 (containing 10% heat inactivated FBS, penicillin (100 units/ml) and streptomycin (100 μg/ml)), and maintained in log phase prior to experimental setup. Prior to the experiment THP-1 were treated with PMA (Phorbol 12-myristate 13-acetate) (20 ng/ml) for 16-18 hours. On the day of the experiment the media was removed and adherent cells were detached with trypsin for 5 minutes. Cells were then harvested, washed with complete RPMI 1640, spun down, resuspended in RPMI 1640 (containing 2% heat inactivated FBS, penicillin (100 units/ml) and streptomycin (100 μg/ml). The cells were plated in a 384-well plate at a density of 50,000 cells/well (final assay volume 50 μl). Compounds were dissolved in dimethyl sulfoxide (DMSO) and added to the culture medium to achieve desired concentration (e.g. 100, 33, 11, 3.7, 1.2, 0.41, 0.14, 0.046, 0.015, 0.0051, 0.0017 μM). Cells were incubated with compounds for 1 hour and then stimulated with gramicidin (5 μM) (Enzo) for 2 hours. Cell free supernatant was collected and the production of IL-10 was evaluated by HTRF (cisbio). A vehicle only control was run concurrently with each experiment. Final DMSO concentration was 0.38%.
Compounds tested with protocols 1 and 2 provided IC50 values that are within the variability of the assay.
Tables 12 and 13 show the biological activity of compounds in hTHP-1 assay containing 2% bovine serum: <1 μM=“++++”; ≥1 and <5 μM=“+++”; ≥5 and <15 μM=“++”; ≥15 and <60 μM=“+”.

SMILES	IC50
CC(C)(O)c1cnc(S(=O)(=O)NC(=O)Cc2c3c(cc4c2CCC4)CCC3)s1 [Example 3, 2-(1,2,3,5,6,7-Hexahydros-indacen-4-yl)-N-(5-(2-hydroxypropan-2-yl)thiazol-2-ylsulfonyl)acetamide]	15 to 60 µM
CC(C)c1cccc(C(C)C)c1CC(=O)NS(=O)(=O)c1cc(-c2ccccc2)cc(C(C)(C)O)c1 [Example 23, 2-(2,6-diisopropylphenyl)-N-(5-(2-hydroxypropan-2-yl)biphenyl-3-ylsulfonyl)acetamide]	1 to 5 µM
CC(C)c1cc(C#N)cc(C(C)C)c1CC(=O)NS(=O)(=O)c1ccc(C(C)(C)O)c(CO)c1 [Example 95, 2-(4-cyano-2,6-diisopropylphenyl)-N-(3-(hydroxymethyl)-4-(2-hydroxypropan-2-yl)phenylsulfonyl)acetamide]	1 to 5 µM
CC(C)c1cc(C#N)cc(C(C)C)c1CC(=O)NS(=O)(=O)c1cccc(C(C)(C)O)c1 [Example 26, 2-(4-cyano-2,6-diisopropylphenyl)-N-(3-(2-hydroxypropan-2-yl)phenylsulfonyl)acetamide]	1 to 5 µM
CC(C)(O)c1cnc(S(=O)(=O)NC(=O)Cc2c3c(c(F)c4c2CCC4)CCC3)s1 [Example 69, 2-(8-fluoro-1,2,3,5,6,7-hexahydros-indacen-4-yl)-N-(5-(2-hydroxypropan-2-yl)thiazol-2-ylsulfonyl)acetamide]	15 to 60 µM
CC(C)c1cc(F)cc(C(C)C)c1CC(=O)NS(=O)(=O)c1cc(C2(C)OCCO2)ccc1F [Example 56, 2-(4-fluoro-2,6-diisopropylphenyl)-N-(2-fluoro-5-(2-methyl-1,3-dioxolan-2-yl)phenylsulfonyl)acetamide]	< 1 µM
CC(C)c1cccc(C(C)C)c1CC(=O)NS(=O)(=O)c1cc(C(C)(C)O)n(-c2ccccc2)n1 [Example 63, 2-(2,6-diisopropylphenyl)-N-(5-(2-hydroxypropan-2-yl)-1-phenyl-1H-pyrazol-3-ylsulfonyl)acetamide]	5 to 15 µM

The remaining lines, values ahead:

IC50	SMILES
1 to 5 µM	COC(C)(C)c1cnc(S(=O)(=O)NC(=O)Cc2c(C(C)C)cc(F)cc2C(C)C)s1 [Example 73, 2-(4-fluoro-2,6-diisopropylphenyl)-N-(5-(2-methoxypropan-2-yl)thiazol-2-ylsulfonyl)acetamide]
< 1 µM	Cc1cc(C(C)(C)O)ccc1S(=O)(=O)NC(=O)Cc1c(C(C)C)cc(F)cc1C(C)C [Example 48, 2-(4-fluoro-2,6-diisopropylphenyl)-N-(4-(2-hydroxypropan-2-yl)-2-methylphenylsulfonyl)acetamide]
< 1 µM	CC(C)c1cc(F)cc(C(C)C)c1CC(=O)NS(=O)(=O)c1ccc(C(C)(C)O)cc1F [Example 54, 2-(4-fluoro-2,6-diisopropylphenyl)-N-(2-fluoro-4-(2-hydroxypropan-2-yl)phenylsulfonyl)acetamide]
< 1 µM	CC(C)c1c(F)c(Cl)c(F)c(C(C)C)c1CC(=O)NS(=O)(=O)c1ncc(C(C)(C)O)s1 [Example 83, 2-(4-chloro-3,5-difluoro-2,6-diisopropylphenyl)-N-(5-(2-hydroxypropan-2-yl)thiazol-2-ylsulfonyl)acetamide]
5 to 15 µM	CC(C)c1cc(F)cc(C(C)C)c1CC(=O)NS(=O)(=O)c1cc2ccccc2o1 [Example 41, N-(benzofuran-2-ylsulfonyl)-2-(4-fluoro-2,6-diisopropylphenyl)acetamide]
5 to 15 µM	CC(C)c1cc(F)cc(C(C)C)c1CC(=O)NS(=O)(=O)c1cc(C(C)(C)O)cc(C(C)(C)O)c1 [Example 30, N-(3,5-bis(2-hydroxypropan-2-yl)phenylsulfonyl)-2-(4-fluoro-2,6-diisopropylphenyl)acetamide]
5 to 15 µM	CC(C)c1cc(F)cc(C(C)C)c1CC(=O)NS(=O)(=O)c1ncc(C(C)(C)CO)s1 [Example 4, 2-(4-Fluoro-2,6-diisopropylphenyl)-N-(5-(1-hydroxy-2-methylpropan-2-yl)thiazol-2-ylsulfonyl)acetamide]

same assay, conditions: hTHP-1 assay containing 2% bovine serum; Table 12, by Example #; read-out: Average IC50 of compounds in hTHP-1 assay

IC50	SMILES
15 to 60 µM	CC(C)c1cc(F)cc(C(C)C)c1CC(=O)NS(=O)(=O)c1ccc(S(F)(F)(F)(F)F)cc1 [Example 39]
